In patent US20260176320A1, “MODULATORS OF G-PROTEIN COUPLED RECEPTORS” (priority 2018, published 2026):
Where two headings read alike, the source gives them in different places.

Experiments:
GLP-1R [1] = target: T1, GLP-1R (Homo sapiens, UniProt P43220); assay: HitHunter cAMP assay (GLP-1R); format: cell-based; details: cAMP; for Emax: read-out: (Emax) GLP-1R; for EC50: read-out: EC50 GLP-1R/nM
Method in brief: (§1)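 Suspension cells (10,000/well) in HBSS with 10 mM HEPES, 625 μM IBMX, 0.2% BSA exposed to 22-point 2-fold agonist series in duplicate for 30 min at room temperature. cAMP measured by antibody immunocompetition with overnight development, luminescence read-out.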

GIP-R = target: T2, GIP-R (Homo sapiens, UniProt P48546); assay: HitHunter cAMP assay (GIP-R); format: cell-based; details: cAMP; for Emax: read-out: (Emax) GIP-R; for EC50: read-out: EC50 GIP-R/nM
T2 sequence (P48546 22-466): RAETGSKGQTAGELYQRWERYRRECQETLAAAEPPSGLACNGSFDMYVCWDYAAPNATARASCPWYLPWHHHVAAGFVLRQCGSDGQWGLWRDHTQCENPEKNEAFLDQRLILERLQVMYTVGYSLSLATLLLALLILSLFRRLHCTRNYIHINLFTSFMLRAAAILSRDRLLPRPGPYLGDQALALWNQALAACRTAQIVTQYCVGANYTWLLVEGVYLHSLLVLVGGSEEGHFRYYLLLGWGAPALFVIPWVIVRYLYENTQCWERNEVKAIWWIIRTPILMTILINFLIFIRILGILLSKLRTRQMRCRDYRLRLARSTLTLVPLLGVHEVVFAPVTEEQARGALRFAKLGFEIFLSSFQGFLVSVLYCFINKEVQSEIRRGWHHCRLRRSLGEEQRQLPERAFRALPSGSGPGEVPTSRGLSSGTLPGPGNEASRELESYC
Method in brief: as §1

mice = assay: Glucose tolerance test (GTT); format: in vivo, mouse; details: 24 h GTT, s.c., dose range 2-5 nmol/kg, percent of vehicle
Method in brief: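 Compounds diluted in PBS from 1 mM DMSO stocks and given subcutaneously 15 min (5-6 h fast), 4 h (16 h overnight fast), 16 h or 24 h before intraperitoneal glucose (2 g/kg). Tail blood glucose read at 10–120 min post-glucose, at least 6 mice per time-point. Glucose AUC over time determined.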

GLP-1R [2] = target: T1, GLP-1R; assay: PathHunter β-arrestin assay; format: cell-based; details: PathHunter β-arrestin assay; read-out: β-arrestin activity EC50
Method in brief: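 Cells (5,000/well) plated overnight, then exposed to a 22-point 2-fold agonist dilution series in medium with 0.2% BSA for 90 min at 37 °C, 5% CO2. PathHunter detection reagent added; after 3 h at room temperature in the dark, luminescence read.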

T1 sequence (P43220 24-463): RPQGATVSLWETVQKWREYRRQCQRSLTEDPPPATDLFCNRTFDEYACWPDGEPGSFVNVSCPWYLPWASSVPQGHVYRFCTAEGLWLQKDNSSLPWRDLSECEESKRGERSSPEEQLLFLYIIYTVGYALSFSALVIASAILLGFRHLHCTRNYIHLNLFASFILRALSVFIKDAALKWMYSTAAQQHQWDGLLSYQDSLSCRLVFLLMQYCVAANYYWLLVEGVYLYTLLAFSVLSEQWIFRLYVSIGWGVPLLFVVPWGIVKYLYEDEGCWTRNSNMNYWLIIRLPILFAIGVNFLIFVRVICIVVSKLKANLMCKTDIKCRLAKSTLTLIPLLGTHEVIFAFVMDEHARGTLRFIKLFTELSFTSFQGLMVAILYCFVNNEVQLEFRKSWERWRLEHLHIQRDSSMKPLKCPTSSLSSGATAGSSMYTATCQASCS

CCCCCCCCCCCCCCCC(=O)N[C@@H](CCC(=O)NCCCC[C@H](NC(=O)[C@H](CO)NC(=O)[C@@H]1CCCN1C(=O)[C@@H]1CCCN1C(=O)[C@@H]1CCCN1C(=O)[C@H](C)NC(=O)CNC(=O)[C@H](CO)NC(=O)[C@H](CO)NC(=O)[C@@H]1CCCN1C(=O)CNC(=O)CNC(=O)[C@H](C)NC(=O)[C@H](CC(C)C)NC(=O)[C@H](CC(C)C)NC(=O)[C@H](Cc1c[nH]c2ccccc12)NC(=O)[C@H](CC(N)=O)NC(=O)[C@@H](NC(=O)[C@H](Cc1ccccc1)NC(=O)[C@H](CCC(=O)O)NC(=O)C(C)(C)NC(=O)[C@H](C)NC(=O)[C@H](C)NC(=O)[C@H](CCC(N)=O)NC(=O)[C@H](CCCCN)NC(=O)[C@H](CC(=O)O)NC(=O)[C@H](CC(C)C)NC(=O)[C@H](Cc1ccc(O)cc1)NC(=O)[C@@H](NC(=O)[C@H](CO)NC(=O)[C@H](Cc1ccc(O)cc1)NC(=O)[C@H](CC(=O)O)NC(=O)[C@H](CO)NC(=O)[C@@H](NC(=O)[C@H](Cc1ccccc1)NC(=O)[C@@H](NC(=O)CNC(=O)[C@H](CCC(=O)O)NC(=O)CSCC(=O)NCCN1C(=O)CCC1=O)[C@@H](C)O)[C@@H](C)O)[C@@H](C)CC)C(C)C)C(N)=O)C(=O)O [Compound 114]
Emax (GLP-1R [1]; Table 3): 94 to 103% | EC50 (GLP-1R [1]; Table 3): 0.1 to 10 nM | Emax (GLP-1R [1]; Table 3A): 94 to 103% | EC50 (GLP-1R [1]; Table 3A): 0.1 to 10 nM | Emax (GIP-R; Table 3): 42 to 63% | EC50 (GIP-R; Table 3): 1 to 10 nM | Emax (GIP-R; Table 3A): 42 to 63% | EC50 (GIP-R; Table 3A): 1 to 10 nM | AUC score (mice): 3 (AUC score 3 = 51-75%) | EC50 (GLP-1R [2]): > 1000 nM

CCCCCCCCCCCCCCCC(=O)N[C@@H](CCC(=O)NCCCC[C@H](NC(=O)[C@H](CO)NC(=O)[C@@H]1CCCN1C(=O)[C@@H]1CCCN1C(=O)[C@@H]1CCCN1C(=O)[C@H](C)NC(=O)CNC(=O)[C@H](CO)NC(=O)[C@H](CO)NC(=O)[C@@H]1CCCN1C(=O)CNC(=O)CNC(=O)[C@H](C)NC(=O)[C@H](CC(C)C)NC(=O)[C@H](CC(C)C)NC(=O)[C@H](Cc1c[nH]c2ccccc12)NC(=O)[C@H](CC(N)=O)NC(=O)[C@@H](NC(=O)[C@H](Cc1ccccc1)NC(=O)[C@H](CCC(=O)O)NC(=O)C(C)(C)NC(=O)[C@H](C)NC(=O)[C@H](C)NC(=O)[C@H](CCC(N)=O)NC(=O)[C@H](CCCCN)NC(=O)[C@H](CC(=O)O)NC(=O)[C@H](CC(C)C)NC(=O)[C@H](Cc1ccc(O)cc1)NC(=O)[C@@H](NC(=O)[C@H](CO)NC(=O)[C@H](Cc1ccc(O)cc1)NC(=O)[C@H](CC(=O)O)NC(=O)[C@H](CO)NC(=O)[C@@H](NC(=O)[C@H](Cc1ccccc1)NC(=O)[C@@H](NC(=O)CNC(=O)[C@H](CCC(=O)O)NC(=O)CSCC(=O)NCCN1C(=O)CSC1=O)[C@@H](C)O)[C@@H](C)O)[C@@H](C)CC)C(C)C)C(N)=O)C(=O)O [Compound 195]
Emax (GLP-1R [1]; Table 3): 93 to 113% | Emax (GLP-1R [1]; Table 3A): 93 to 113% | EC50 (GLP-1R [1]; Table 3A): 0.1 to 10 nM | Emax (GIP-R; Table 3): 46 to 87% | EC50 (GIP-R; Table 3): 0.1 to 10 nM | Emax (GIP-R; Table 3A): 46 to 87% | EC50 (GIP-R; Table 3A): 0.1 to 10 nM | AUC score (mice): 2 (AUC score 2 = 26-50%) | EC50 (GLP-1R [2]): > 1000 nM

CCCCCCCCCCCCCCCC(=O)N[C@@H](CCC(=O)NCCCC[C@H](NC(=O)[C@H](CO)NC(=O)[C@@H]1CCCN1C(=O)[C@@H]1CCCN1C(=O)[C@@H]1CCCN1C(=O)[C@H](C)NC(=O)CNC(=O)[C@H](CO)NC(=O)[C@H](CO)NC(=O)[C@@H]1CCCN1C(=O)CNC(=O)CNC(=O)[C@H](C)NC(=O)[C@H](CC(C)C)NC(=O)[C@H](CC(C)C)NC(=O)[C@H](Cc1c[nH]c2ccccc12)NC(=O)[C@H](CC(N)=O)NC(=O)[C@@H](NC(=O)[C@H](Cc1ccccc1)NC(=O)[C@H](CCC(=O)O)NC(=O)C(C)(C)NC(=O)[C@H](C)NC(=O)[C@H](C)NC(=O)[C@H](CCC(N)=O)NC(=O)[C@H](CCCCN)NC(=O)[C@H](CC(=O)O)NC(=O)[C@H](CC(C)C)NC(=O)[C@H](Cc1ccc(O)cc1)NC(=O)[C@@H](NC(=O)[C@H](CO)NC(=O)[C@H](Cc1ccc(O)cc1)NC(=O)[C@H](CC(=O)O)NC(=O)[C@H](CO)NC(=O)[C@@H](NC(=O)[C@H](Cc1ccccc1)NC(=O)[C@@H](NC(=O)CNC(=O)[C@H](CCC(=O)O)NC(=O)CCNC(=O)CN1CCOCC1=O)[C@@H](C)O)[C@@H](C)O)[C@@H](C)CC)C(C)C)C(N)=O)C(=O)O [Compound 233]
Emax (GLP-1R [1]; Table 3A): 96% | EC50 (GLP-1R [1]; Table 3A): < 0.1 nM | Emax (GIP-R; Table 3A): 77% | EC50 (GIP-R; Table 3A): 1 to 10 nM | AUC score (mice): 2 (AUC score 2 = 26-50%) | EC50 (GLP-1R [2]): 10 to 1000 nM

CCCCCCCCCCCCCCCC(=O)N[C@@H](CCC(=O)NCCCC[C@H](NC(=O)[C@H](CO)NC(=O)[C@@H]1CCCN1C(=O)[C@@H]1CCCN1C(=O)[C@@H]1CCCN1C(=O)[C@H](C)NC(=O)CNC(=O)[C@H](CO)NC(=O)[C@H](CO)NC(=O)[C@@H]1CCCN1C(=O)CNC(=O)CNC(=O)[C@H](C)NC(=O)[C@H](CC(C)C)NC(=O)[C@H](CC(C)C)NC(=O)[C@H](Cc1c[nH]c2ccccc12)NC(=O)[C@H](CC(N)=O)NC(=O)[C@@H](NC(=O)[C@H](Cc1ccccc1)NC(=O)[C@H](CCC(=O)O)NC(=O)C(C)(C)NC(=O)[C@H](C)NC(=O)[C@H](C)NC(=O)[C@H](CCC(N)=O)NC(=O)[C@H](CCCCN)NC(=O)[C@H](CC(=O)O)NC(=O)[C@H](CC(C)C)NC(=O)[C@H](Cc1ccc(O)cc1)NC(=O)[C@@H](NC(=O)[C@H](CO)NC(=O)[C@H](Cc1ccc(O)cc1)NC(=O)[C@H](CC(=O)O)NC(=O)[C@H](CO)NC(=O)[C@@H](NC(=O)[C@H](Cc1ccccc1)NC(=O)[C@@H](NC(=O)CNC(=O)[C@H](CCC(=O)O)NC(=O)CCNC(=O)Cn1ccccc1=O)[C@@H](C)O)[C@@H](C)O)[C@@H](C)CC)C(C)C)C(N)=O)C(=O)O [Compound 234]
Emax (GLP-1R [1]; Table 3A): 97% | EC50 (GLP-1R [1]; Table 3A): 0.1 to 1 nM | Emax (GIP-R; Table 3A): 76% | EC50 (GIP-R; Table 3A): 1 to 10 nM | AUC score (mice): 3 (AUC score 3 = 51-75%) | EC50 (GLP-1R [2]): > 1000 nM

CCCCCCCCCCCCCCCC(=O)N[C@@H](CCC(=O)NCCCC[C@H](NC(=O)[C@H](CO)NC(=O)[C@@H]1CCCN1C(=O)[C@@H]1CCCN1C(=O)[C@@H]1CCCN1C(=O)[C@H](C)NC(=O)CNC(=O)[C@H](CO)NC(=O)[C@H](CO)NC(=O)[C@@H]1CCCN1C(=O)CNC(=O)CNC(=O)[C@H](C)NC(=O)[C@H](CC(C)C)NC(=O)[C@H](CC(C)C)NC(=O)[C@H](Cc1c[nH]c2ccccc12)NC(=O)[C@H](CC(N)=O)NC(=O)[C@@H](NC(=O)[C@H](Cc1ccccc1)NC(=O)[C@H](CCC(=O)O)NC(=O)C(C)(C)NC(=O)[C@H](C)NC(=O)[C@H](C)NC(=O)[C@H](CCC(N)=O)NC(=O)[C@H](CCCCN)NC(=O)[C@H](CC(=O)O)NC(=O)[C@H](CC(C)C)NC(=O)[C@H](Cc1ccc(O)cc1)NC(=O)[C@@H](NC(=O)[C@H](CO)NC(=O)[C@H](Cc1ccc(O)cc1)NC(=O)[C@H](CC(=O)O)NC(=O)[C@H](CO)NC(=O)[C@@H](NC(=O)[C@H](Cc1ccccc1)NC(=O)[C@@H](NC(=O)CNC(=O)[C@H](CCC(=O)O)NC(=O)CCNC(=O)CN1CCCCCC1=O)[C@@H](C)O)[C@@H](C)O)[C@@H](C)CC)C(C)C)C(N)=O)C(=O)O [Compound 266]
Emax (GLP-1R [1]; Table 3A): 100% | EC50 (GLP-1R [1]; Table 3A): < 0.1 nM | Emax (GIP-R; Table 3A): 70% | EC50 (GIP-R; Table 3A): 1 to 10 nM | AUC score (mice): 2 (AUC score 2 = 26-50%) | EC50 (GLP-1R [2]): < 10 nM
